Each compound was assayed against NaV 1.8 channel (Homo sapiens, UniProt Q9Y5Y9) (assay: Activity against NaV 1.8 channel (optical membrane potential assay)).
NaV 1.8 channel, sequence (Q9Y5Y9 whole entry): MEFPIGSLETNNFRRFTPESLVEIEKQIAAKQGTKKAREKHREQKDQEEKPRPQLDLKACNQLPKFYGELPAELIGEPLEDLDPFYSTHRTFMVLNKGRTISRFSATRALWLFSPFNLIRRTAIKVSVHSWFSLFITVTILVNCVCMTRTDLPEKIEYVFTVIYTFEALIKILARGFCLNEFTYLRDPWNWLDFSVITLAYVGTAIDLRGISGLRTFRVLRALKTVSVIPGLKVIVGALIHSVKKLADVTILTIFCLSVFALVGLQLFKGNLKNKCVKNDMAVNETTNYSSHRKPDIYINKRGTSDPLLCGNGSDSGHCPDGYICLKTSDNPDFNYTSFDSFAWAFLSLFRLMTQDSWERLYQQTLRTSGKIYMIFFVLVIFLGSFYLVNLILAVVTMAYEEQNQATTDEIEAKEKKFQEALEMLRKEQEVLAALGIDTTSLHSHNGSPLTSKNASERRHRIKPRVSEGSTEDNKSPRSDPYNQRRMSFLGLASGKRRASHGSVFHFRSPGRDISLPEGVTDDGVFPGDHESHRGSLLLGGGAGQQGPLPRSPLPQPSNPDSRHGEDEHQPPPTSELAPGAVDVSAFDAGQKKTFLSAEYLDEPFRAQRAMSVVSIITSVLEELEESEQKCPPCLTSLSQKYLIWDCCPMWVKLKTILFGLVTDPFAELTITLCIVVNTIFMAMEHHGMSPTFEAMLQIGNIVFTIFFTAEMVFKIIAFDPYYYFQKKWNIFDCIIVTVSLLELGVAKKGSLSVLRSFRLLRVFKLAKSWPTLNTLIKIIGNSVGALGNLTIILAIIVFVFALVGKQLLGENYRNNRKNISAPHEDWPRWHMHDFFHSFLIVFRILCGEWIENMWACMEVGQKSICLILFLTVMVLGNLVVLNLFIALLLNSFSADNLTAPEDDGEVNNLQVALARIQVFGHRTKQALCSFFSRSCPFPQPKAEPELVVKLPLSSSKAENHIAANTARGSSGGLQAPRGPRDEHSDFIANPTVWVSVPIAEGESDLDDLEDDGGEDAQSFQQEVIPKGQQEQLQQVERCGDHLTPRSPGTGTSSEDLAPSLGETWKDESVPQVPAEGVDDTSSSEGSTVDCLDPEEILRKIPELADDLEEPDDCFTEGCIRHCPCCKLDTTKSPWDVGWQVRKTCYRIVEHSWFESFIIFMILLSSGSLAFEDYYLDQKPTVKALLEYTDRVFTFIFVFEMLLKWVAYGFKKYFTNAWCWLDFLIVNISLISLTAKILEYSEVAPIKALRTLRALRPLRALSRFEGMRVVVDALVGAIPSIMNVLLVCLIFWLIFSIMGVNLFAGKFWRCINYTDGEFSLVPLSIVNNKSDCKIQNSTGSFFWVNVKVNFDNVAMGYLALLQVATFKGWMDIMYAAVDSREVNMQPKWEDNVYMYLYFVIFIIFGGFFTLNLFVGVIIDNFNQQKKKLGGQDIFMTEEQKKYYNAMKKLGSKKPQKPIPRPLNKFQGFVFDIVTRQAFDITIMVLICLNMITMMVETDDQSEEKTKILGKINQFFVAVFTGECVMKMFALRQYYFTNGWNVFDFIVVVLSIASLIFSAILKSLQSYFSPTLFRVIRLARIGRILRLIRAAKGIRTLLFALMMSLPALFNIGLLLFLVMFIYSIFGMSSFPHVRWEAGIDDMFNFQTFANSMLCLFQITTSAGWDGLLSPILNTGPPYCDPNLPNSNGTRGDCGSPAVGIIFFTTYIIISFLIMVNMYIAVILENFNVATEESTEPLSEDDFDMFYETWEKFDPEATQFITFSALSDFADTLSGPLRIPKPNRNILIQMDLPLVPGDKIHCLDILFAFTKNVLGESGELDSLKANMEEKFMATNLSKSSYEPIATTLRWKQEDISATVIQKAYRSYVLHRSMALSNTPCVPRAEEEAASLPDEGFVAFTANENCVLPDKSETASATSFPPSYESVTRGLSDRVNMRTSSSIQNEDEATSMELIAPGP
Type: cell-based
Summary of the method: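 FRET membrane-potential assay (coumarin CC2-DMPE donor, oxonol DiSBAC2(3) acceptor plus veratridine) on VIPR; compound added with oxonol for 20–30 min before Na+ add-back stimulation. Activity from background-subtracted 460/580 nm ratio change (baseline 2–7 s, response 15–24 s) relative to tetracaine positive and drug-free negative controls.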
Cc1ccc2c(N3CC[C@@H](CNC(=O)OCc4ccccc4)C3)nc(-c3ccccc3O)nc2c1 [Example 363, Benzyl ((S)-1-(2-(2-hydroxyphenyl)-7-methylquinazolin-4-yl)pyrrolidin-3-yl)methylcarbamate] gave an IC50 of 2 to 10 µM. Compound O=C(NC1CCN(c2nc(-c3ccccc3O)nc3ccc(F)cc23)CC1)[C@H]1CCCO1 [Example 224, (2R)—N-(1-(6-Fluoro-2-(2-hydroxyphenyl)quinazolin-4-yl)piperidin-4-yl)-tetrahydrofuran-2-carboxamide] has an IC50 of over 10 µM. Compound Cc1ccc2c(N3CCN(C(=O)O[C@H]4COC5OCC[C@@H]54)CC3)nc(-c3ccccc3O)nc2c1 (some centres unmarked) [Example 190] has an IC50 of 2 to 10 µM. Compound CC(C)C[C@@H](O)C(=O)N1CCN(c2nc(-c3ccccc3O)nc3ccccc23)CC1 [Example 102, (R)-2-Hydroxy-1-(4-(2-(2-hydroxyphenyl)quinazolin-4-yl)piperazin-1-yl)-4-methylpentan-1-one] has an IC50 of 2 to 10 µM. Cc1ccc2c(N3CCC(NC(=O)O[C@@H]4CCOC4)CC3)nc(-c3ccccc3O)nc2c1 [Example 272] gave an IC50 of 2 to 10 µM. O=C(OCc1cccc2c1OCO2)N1CCN(c2nc(-c3ccccc3O)nc3ccccc23)CC1 [Example 140, (Benzo[d][1,3]dioxol-7-yl)methyl 4-(2-(2-hydroxyphenyl)quinazolin-4-yl)piperazine-1-carboxylate] was tested, and the IC50 was over 10 µM. In the case of COCCOC(=O)NC[C@@H]1CCN(c2nc(-c3c(O)cccc3F)nc3cc(C)ccc23)C1 [Example 373, 2-Methoxyethyl ((S)-1-(2-(2-fluoro-6-hydroxyphenyl)-7-methylquinazolin-4-yl)pyrrolidin-3-yl)methylcarbamate], the IC50 is reported as 2 to 10 µM. With O=C(NC1CCN(c2nc(-c3c(O)cccc3Cl)nc3ccccc23)CC1)[C@H]1CCCO1 [Example 213, (2R)—N—(1-(2-(2-Chloro-6-hydroxyphenyl)quinazolin-4-yl)piperidin-4-yl)-tetrahydrofuran-2-carboxamide] the IC50 was over 10 µM. With Cc1ccc2c(N3CCC(CNC(=O)OCC(C)C)CC3)nc(-c3ccccc3O)nc2c1 [Example 278] the IC50 was over 10 µM. In the case of O=C(NC[C@@H]1CCN(c2nc(-c3ccccc3O)nc3ccc(F)cc23)C1)O[C@H]1CCOC1 [Example 356, (S)-Tetrahydrofuran-3-yl ((S)-1-(6-fluoro-2-(2-hydroxyphenyl)quinazolin-4-yl)pyrrolidin-3-yl)methylcarbamate], the IC50 is reported as over 10 µM. CCOC(=O)NC[C@@H]1CCCN(c2nc(-c3c(O)cccc3F)nc3cc(C)ccc23)C1 [Example 262, Ethyl ((S)-1-(2-(2-fluoro-6-hydroxyphenyl)-7-methylquinazolin-4-yl)piperidin-3-yl)methylcarbamate] gave an IC50 of 2 to 10 µM. Compound Cc1ccc2c(N3CC[C@@H](NC(=O)c4cccnc4)C3)nc(-c3c(O)cccc3F)nc2c1 [Example 352, N—((R)-1-(2-(2-Fluoro-6-hydroxyphenyl)-7-methylquinazolin-4-yl)pyrrolidin-3-yl)nicotinamide] has an IC50 of over 10 µM. CC(C)C[C@@H](O)C(=O)N1CCN(c2nc(-c3ccccc3O)nc3cc(C(=O)O)ccc23)CC1 [Example 123, 4-[4-((R)-2-Hydroxy-4-methyl-pentanoyl)-piperazin-1-yl]-2-(2-hydroxy-phenyl)-quinazoline-7-carboxylic acid] showed an IC50 of over 10 µM. With Cc1ccc2c(N3CCC(NC(=O)C(O)CC(C)C)CC3)nc(-c3ccccc3O)nc2c1 (centres unmarked) [Example 265] the IC50 was over 10 µM. Work on CCCCC(O)C(=O)N1CCN(c2nc(-c3ccccc3O)nc3cc(C)ccc23)CC1 (centres unmarked) [Example 120] yielded an IC50 of 2 to 10 µM. Compound O=C(N[C@@H]1CCN(c2nc(-c3ccccc3O)nc3ccc(F)cc23)C1)C1CC1 [Example 329, N—((R)-1-(6-Fluoro-2-(2-hydroxyphenyl)quinazolin-4-yl)pyrrolidin-3-yl)cyclopropanecarboxamide] has an IC50 of 2 to 10 µM. Work on Cc1ccc2c(N3CCN(C(=O)Oc4ccccc4)CC3CO)nc(-c3ccccc3O)nc2c1 (centres unmarked) [Example 126, 3-Hydroxymethyl-4-[2-(2-hydroxy-phenyl)-7-methyl-quinazolin-4-yl]-piperazine-1-carboxylic acid phenyl ester] yielded an IC50 of over 10 µM.

— patent US7928107B2, “Quinazolines useful as modulators of ion channels” (Vertex Pharmaceuticals Incorporated, priority 2004, dated 2011)
